Results from ChEMBL document CHEMBL1143878, “The design and synthesis of novel alpha-ketoamide-based p38 MAP kinase inhibitors” (Bioorg Med Chem Lett, 2008).

Columns and labels:
THP-1 = assay: Inhibition of LPS-induced TNFalpha production in human THP1 cells; format: functional, cell-based
[1] = molecular target: T1, Mitogen-activated protein kinase 14 (Homo sapiens, UniProt Q16539); assay: Inhibition of human p38-alpha kinase phosphorylation
[2] = molecular target: T1, Mitogen-activated protein kinase 14; assay: Inhibition of human p38-alpha kinase
[3] = AUC in rat at 30 mg/kg, po; format: ADME, organism-based; parameters: dose 30 mg/kg, route oral; details: plasma
[4] = Half life in rat at 30 mg/kg, po; format: ADME, organism-based; parameters: dose 30 mg/kg, route oral; details: in vivo
[5] = Bioavailability in rat at 30 mg/kg, po; format: ADME, organism-based; details: in vivo
[6] = Clearance in rat at 10 mg/kg, iv; format: ADME, organism-based; parameters: dose 10 mg/kg, route intravenous; details: in vivo
[7] = Cmax in rat at 30 mg/kg, po; format: ADME, organism-based; parameters: dose 30 mg/kg, route oral; details: in vivo
[8] = Volume of distribution at steady state in rat at 10 mg/kg, iv; format: ADME, organism-based; parameters: dose 10 mg/kg, route intravenous; details: in vivo, read-out: Vdss
[9] = Tmax in rat at 30 mg/kg, po; format: ADME, organism-based; parameters: dose 30 mg/kg, route oral; details: in vivo

T1 sequence (Q16539 whole entry): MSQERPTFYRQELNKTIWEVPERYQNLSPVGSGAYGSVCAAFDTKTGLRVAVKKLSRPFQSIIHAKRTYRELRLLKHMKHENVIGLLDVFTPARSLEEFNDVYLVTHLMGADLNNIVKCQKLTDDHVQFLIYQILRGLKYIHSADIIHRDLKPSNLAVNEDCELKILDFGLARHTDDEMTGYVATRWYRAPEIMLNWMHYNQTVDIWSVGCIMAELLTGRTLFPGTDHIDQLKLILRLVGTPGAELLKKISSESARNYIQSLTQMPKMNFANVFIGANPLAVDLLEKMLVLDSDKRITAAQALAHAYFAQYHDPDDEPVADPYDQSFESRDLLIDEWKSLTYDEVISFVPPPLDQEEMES

Structure (SMILES)	IC50 (THP-1) [nM]	other results
Cc1cccc(-n2nc(C(C)(C)C)cc2NC(=O)C(=O)c2ccc(OCCN3CCOCC3)c3ccccc23)c1	340	
Cc1ccc(-n2nc(C(C)(C)C)cc2NC(=O)Nc2ccc(OCCN3CCOCC3)c3ccccc23)cc1 [DORAMAPIMOD]	13	
Cn1nc(C(C)(C)C)cc1NC(=O)C(=O)c1ccc(OCCN2CCOCC2)c2ccccc12		IC50 [1]: 300 nM; IC50 [2]: 150 nM
Cc1ccc(-n2nc(C(C)(C)C)cc2NC(=O)C(O)c2ccc(OCCN3CCOCC3)c3ccccc23)cc1 (stereo not given)	970	
Cc1ccc(-n2nc(C(C)(C)C)cc2NC(=O)/C(=N\O)c2ccc(OCCN3CCOCC3)c3ccccc23)cc1	23	AUC [3]: 36000 ng·h/mL; half-life [4]: 1.4 h; bioavailability [5]: 100%; IC50 [1]: 150 nM; clearance [6]: 15 mL/min/kg; Cmax [7]: 4500 ng/mL; Vd [8]: 1.9 L/kg; IC50 [2]: 23 nM; Tmax [9]: 1 h
Cc1ccccc1-n1nc(C(C)(C)C)cc1NC(=O)C(=O)c1ccc(OCCN2CCOCC2)c2ccccc12	1500	
Cc1ccc(-n2nc(C(C)(C)C)cc2NC(=O)C(=O)c2ccc(OCCN3CCOCC3)c3ccccc23)cc1C	450	
C[S+]([O-])c1ccc(-c2nc(-c3ccc(F)cc3)c(-c3ccncc3)[nH]2)cc1 (stereo not given) [SB-203580]	16	
CC(C)(C)c1cc(NC(=O)C(=O)c2ccc(OCCN3CCOCC3)c3ccccc23)[nH]n1	1500	
Cc1ccc(-n2nc(C(C)(C)C)cc2NC(=O)C(=O)c2ccc(OCCN3CCOCC3)c3ccccc23)cc1	440	IC50 [1]: 310 nM; IC50 [2]: 320 nM
Cc1ccc(-n2nc(C(C)(C)C)cc2NC(=O)C(=O)c2ccc(OCCN3CCOCC3)c3ccc(Cl)cc23)cc1	2600	
CO/N=C(\C(=O)Nc1cc(C(C)(C)C)nn1-c1ccc(C)cc1)c1ccc(OCCN2CCOCC2)c2ccccc12	1500	
Cc1ccc(-n2nc(C(C)(C)C)cc2NC(=O)Cc2ccc(OCCN3CCOCC3)c3ccccc23)cc1	1400	
Cc1ccc(-n2nc(C(C)(C)C)cc2NC(=O)C(=O)c2ccc(OCCN3CCOCC3)c3ccccc23)cc1F	220	
CC(C)(C)c1cc(NC(=O)C(=O)c2ccc(OCCN3CCOCC3)c3ccccc23)n(-c2ccccc2)n1	2100	
Cc1ccc(-n2nc(C(C)(C)C)cc2NC(=O)c2n[nH]c3ccccc23)cc1	2900	
CC(C)(C)c1cc(NC(=O)C(=O)c2ccc(OCCN3CCOCC3)c3ccccc23)n(-c2cccc(F)c2)n1	440	
O=c1ncn2nc(Sc3ccc(F)cc3F)ccc2c1-c1c(Cl)cccc1Cl [NEFLAMAPIMOD]	39	
